Test results published in patent US12030888B2, “Himastatin derivatives, and processes of preparation thereof, and uses thereof” (priority 2021, dated 2024).
≈ marks a conversion by molar mass, not a printed value. Like-named read-outs stand apart in the source and are kept apart here. Numbered stars: 1 amine (or outer) side, 2 acyl side, 3 side chain; on linkers, the order of the positions; unused ones are H or OH. Square brackets hold non-standard residues; d marks the D form. Peptide text beside a SMILES is read from it. X1 = O=C([C@@H]1C[C@@]2(O)c3ccccc3N[C@H]2N1[*:1])[*:2]; X2 = O=C([C@H]1C[C@]2(O)c3ccccc3N[C@@H]2N1[*:1])[*:2]; X3 = O=C([C@@H]1C[C@H](O)CNN1[*:1])[*:2]; dPiz(5R-OH) = O=C(O)[C@H]1C[C@@H](O)CNN1; Lys(N3) = [N-]=[N+]=NCCCC[C@H](N)C(=O)O; NMeV = CN[C@H](C(=O)O)C(C)C; dHiv = CC(C)[C@@H](O)C(=O)O; Hiv = CC(C)[C@H](O)C(=O)O

Tests used:
[1] = tested on: Methicillin-Sensitive S. aureus (Newman); format: cell-based, Staphylococcus aureus; conditions: Newman
Experimental: (§1) Bacillus subtilis subsp. spizizenii (ATCC 6633) and Streptomyces himastatinicus (ATCC 53653) were obtained from the American Type Culture Collection (ATCC). Methicillin-resistant and methicillin-susceptible Staphylococcus aureus (Newman), and vancomycin-resistant (V583) and vancomycin-susceptible (T7) Enterococcus faecalis were obtained from the lab of Dr. Roby P. Bhattacharyya (Massachusetts General Hospital).^6 B. subtilis was grown in brain-heart infusion (BHI) medium at 37° C., S. himastatinicus was grown in tryptone-yeast extract broth (ISP medium 2) at 28° C., E. faecalis was grown in Todd-Hewitt broth, and all other organisms were grown in lysogeny broth (LB) medium at 37° C.
(§2) Minimum inhibitory concentration (MIC) was determined using the broth microdilution method. 20-fold stocks of compound in DMSO were diluted 10-fold in MHB medium and 100 μL of each were added to the first well of a 96-well plate. 50 μL of the first well was then serially diluted through 50 μL MHB medium in wells 2-11. To prepare the bacterial culture, an overnight culture was diluted in MHB until the turbidity matched that of McFarland standard 0.5. Then, the culture was diluted 1:100 and added to wells 1-11, resulting in 2-fold dilutions of antibiotic beginning at 64 μg/mL and a final inoculum of 5×10^5 cfu/mL. 100 μL of MHB medium was added to well 12 as a sterility control, and a row containing no antibiotic was used as a growth control. The plate was incubated at the organism's respective growth temperature overnight (B. subtilis) or 72 h (S. himastatinicus) and the MIC was determined using OD600.
(§3) Minimum inhibitory concentration (MIC) was determined using the broth microdilution method.^7 20-fold (1.28 mg/mL) stocks of compound in dimethylsulfoxide, stored as frozen (−80° C.) 30-μL aliquots, were diluted 10-fold in Mueller Hinton broth (MHB) and a 100-μL sample of each was added to the first well of a 96-well plate. A 50-μL sample of the first well was then serially diluted two-fold through 50-μL NMB medium in wells 2-11. A bacterial culture was prepared from a frozen (−80° C.) stock in the organism's respective growth medium and grown overnight. The culture was then diluted in MHB until the turbidity matched that of McFarland standard 0.5 by measuring the optical density at 600 nm (1×10^8 cfu/mL). Then, the culture was diluted 1:100 and a 50-μL aliquot was added to wells 1-11, resulting in 2-fold dilutions of antibiotic from 64 μg/mL down to 0.0625 μg/mL and a final inoculum of 5×10^5 cfu/mL. A 100-μL aliquot of MHB medium was added to well 12 as a sterility control, and a row containing no antibiotic was used as a growth control. The plate was incubated at the organism's respective growth temperature overnight or 72 h (S. himastatinicus). The MIC was determined by observing the well density by eye and, with the exception of S. himastatinicus which grows in solid colonies in media, was confirmed by measuring the optical density of each well at 600 nm. At least two assays were conducted for each organism on identical lots of compound. No degradation of compound stocks in dimethylsulfoxide was observed by LC-MS analysis after being subjected to multiple freeze-thaw cycles.

[2] = tested on: Vancomycin-Sensitive E. faecalis (T7); format: cell-based, Enterococcus faecalis; conditions: Vancomycin-Sensitive (T7)
Experimental: as §1, §2, §3

[3] = tested on: Bacillus subtilis (ATCC 6633); format: cell-based; conditions: for MIC (μg/mL) B. subtilis: ATCC 6633; for MIC in Bacillus subtilis: text and figure legend
Experimental: as §1, §2, §3

[4] = tested on: Gram-positive bacteria; format: cell-based; conditions: relative to (−)-himastatin (1) where a derivative
Experimental: as §1, §2, §3

[5] = tested on: Methicillin-Resistant Staphylococcus aureus; format: cell-based; conditions: Methicillin-Resistant
Experimental: as §1, §2, §3

[6] = tested on: Streptomyces himastatinicus (ATCC 53653); format: cell-based; conditions: ATCC 53653, 72 h
Experimental: as §1, §2, §3

[7] = tested on: Vancomycin-Resistant Enterococcus faecalis (V583); format: cell-based; conditions: Vancomycin-Resistant (V583)
Experimental: as §1, §2, §3

SMILES | MIC (μg/mL) MSSA [1] [µg/mL] | MIC (μg/mL) VSE faecalis [2] [µg/mL] | MIC (μg/mL) B. subtilis [3] [µg/mL] | antibiotic activity (in words) [4] | MIC (μg/mL) MRSA [5] [µg/mL] | MIC (μg/mL) S. himastatinicus [6] [µg/mL] | MIC (μg/mL) VRE faecalis [7] [µg/mL] | MIC in Bacillus subtilis [3] [µg/mL] | MIC in Bacillus subtilis ([3]; listed as TAMRA-himastatin) [µg/mL] | antibiotic activity (in words) ([4]; listed as (−)-15)
CC(C)C[C@@H]1NC(=O)[C@H]2C[C@@H](O)CNN2C(=O)[C@H](C(C)C)OC(=O)[C@@H](C(C)C)NC(=O)[C@@H]2C[C@@]3(O)c4ccccc4N[C@H]3N2C(=O)[C@@H]([C@H](C)O)NC1=O [(+)-6, Himastatin Monomer, reference compound] (cyclo([Hiv][dPiz(5R-OH)]L[dT][X1][dV])) | >64 | >64 | >64 | inactive | >64 | >64 | >64 |  |  | 
CC(C)C[C@@H]1NC(=O)[C@H]2C[C@@H](O)CNN2C(=O)[C@H](C(C)C)NC(=O)[C@@H](C(C)C)NC(=O)[C@@H]2C[C@@]3(O)c4ccccc4N[C@H]3N2C(=O)[C@@H]([C@H](C)O)NC1=O [(+)-25, Cyclic Hexapeptide] (cyclo(L[dT][X1][dV]V[dPiz(5R-OH)])) | >64 | >64 | >64 |  | >64 | >64 | >64 |  |  | 
CC(C)C[C@@H]1NC(=O)[C@H]2C[C@@H](O)CNN2C(=O)[C@H](C(C)C)N(C)C(=O)[C@@H](C(C)C)NC(=O)[C@@H]2C[C@@]3(O)c4ccccc4N[C@H]3N2C(=O)[C@@H]([C@H](C)O)NC1=O [(+)-27, N-Methyl Cyclic Hexapeptide] (cyclo(L[dT][X1][dV][NMeV][dPiz(5R-OH)])) | >64 | >64 | >64 |  | >64 | >64 | >64 |  |  | 
CC(C)C[C@@H]1NC(=O)[C@H]2CCCN2C(=O)[C@H](C(C)C)OC(=O)[C@@H](C(C)C)NC(=O)[C@@H]2C[C@@]3(O)c4ccccc4N[C@H]3N2C(=O)[C@@H]([C@H](C)O)NC1=O [(+)-29, Proline Cyclic Depsihexapeptide] (cyclo([Hiv][dP]L[dT][X1][dV])) | >64 | >64 | >64 |  | >64 | >64 | >64 |  |  | 
CC(C)[C@@H]1OC(=O)[C@@H](C(C)C)NC(=O)[C@@H]2C[C@@]3(O)c4ccccc4N[C@H]3N2C(=O)[C@@H]([C@H](C)O)NC(=O)[C@H](CCCCN=[N+]=[N-])NC(=O)[C@H]2C[C@@H](O)CNN2C1=O [(+)-31, Azido Cyclic Depsihexapeptide] (cyclo([Hiv][dPiz(5R-OH)][Lys(N3)][dT][X1][dV])) | >64 | >64 | >64 |  | >64 | >64 | >64 |  |  | 
CC(C)C[C@H]1NC(=O)[C@@H]2C[C@H](O)CNN2C(=O)[C@@H](C(C)C)OC(=O)[C@H](C(C)C)NC(=O)[C@H]2C[C@]3(O)c4ccccc4N[C@@H]3N2C(=O)[C@H]([C@@H](C)O)NC1=O [(−)-6, ent-himastatin monomer] (cyclo([dL]T[X2]V[dHiv][X3])) | >64 | >64 | >64 |  | >64 | 8 (≈ 10.8 µM) | >64 |  |  | 
CC(C)C[C@@H]1NC(=O)[C@H]2C[C@@H](O)CNN2C(=O)[C@H](C(C)C)OC(=O)[C@@H](C(C)C)NC(=O)[C@@H]2C[C@@]3(O)c4cc(-c5ccc6c(c5)[C@]5(O)C[C@H]7C(=O)N[C@H](C(C)C)C(=O)O[C@@H](C(C)C)C(=O)N8NC[C@H](O)C[C@@H]8C(=O)N[C@@H](CCCCNC(=O)c8ccc9c(c8)C(=O)OC98c9ccc(N(C)C)cc9Oc9cc(N(C)C)ccc98)C(=O)N[C@H]([C@H](C)O)C(=O)N7[C@@H]5N6)ccc4N[C@H]3N2C(=O)[C@@H]([C@H](C)O)NC1=O [(−)-25, TAMRA Himastatin Heterodimer] |  |  |  |  |  |  |  | 6 (≈ 3.14 µM) | ~8 (≈ 4.18 µM) | 
CC(C)C[C@@H]1NC(=O)[C@H]2C[C@@H](O)CNN2C(=O)[C@H](C(C)C)NC(=O)[C@@H](C(C)C)NC(=O)[C@@H]2C[C@@]3(O)c4cc(-c5ccc6c(c5)[C@]5(O)C[C@H]7C(=O)N[C@H](C(C)C)C(=O)N[C@@H](C(C)C)C(=O)N8NC[C@H](O)C[C@@H]8C(=O)N[C@@H](CC(C)C)C(=O)N[C@H]([C@H](C)O)C(=O)N7[C@@H]5N6)ccc4N[C@H]3N2C(=O)[C@@H]([C@H](C)O)NC1=O [(−)-26, Himastatin Lactam Derivative] | 16 (≈ 10.8 µM) | 16 (≈ 10.8 µM) | 8 (≈ 5.39 µM) | modest reduction in antibiotic activity | 32 (≈ 21.6 µM) | >64 | 32 (≈ 21.6 µM) |  |  | decreasing antibiotic activity
CC(C)C[C@@H]1NC(=O)[C@H]2C[C@@H](O)CNN2C(=O)[C@H](C(C)C)N(C)C(=O)[C@@H](C(C)C)NC(=O)[C@@H]2C[C@@]3(O)c4cc(-c5ccc6c(c5)[C@]5(O)C[C@H]7C(=O)N[C@H](C(C)C)C(=O)N(C)[C@@H](C(C)C)C(=O)N8NC[C@H](O)C[C@@H]8C(=O)N[C@@H](CC(C)C)C(=O)N[C@H]([C@H](C)O)C(=O)N7[C@@H]5N6)ccc4N[C@H]3N2C(=O)[C@@H]([C@H](C)O)NC1=O [(−)-28, Himastatin N-Methyl Lactam Derivative] | >64 | >64 | >64 | decreasing antibiotic activity | >64 | >64 | >64 |  |  | 
